Counter-ions that a name gives are not always drawn.
Legend:
[1] = background statement; cited from earlier work
[2] = Toxicity Test (LD50, observation of mice for two weeks); set-up: species or system ICR (CD-1) mice; details: mouse, in vivo
Method: Groups of ICR (CD-1) male and female mice (age: 5 weeks, weight of male mice: 22.0-33.8 g, weight of female mice: 18.8-27.3 g), each consisting of eight mice, were used for the test. 2-methylspiro(1,3-oxathiolane-5,3')quinuclidine hydrochloride of formula (II) was orally, intravenously, or subcutaneously administered at different (high and low) doses. LD50 (50% lethal dose) was determined by the observation of mice for two weeks thereafter.

saliva secretion [3] = experiment: Saliva secretion effects in dogs; format: in vivo; details: four weeks, 4 female beagle dogs
Method: (§1) 2-Methylspiro(1,3-oxathiolane-5,3')quinuclidine hydrochloride of formula (II), in amounts of 0, 0.5, 3, and 18 mg/kg, was orally administered to female beagle dogs (weight: 7.1-9.6 kg) of four groups, each consisting of four dogs, one time a day and for four weeks.

tear secretion = experiment: Tear secretion effects in dogs; format: in vivo; details: four weeks, 4 female beagle dogs
Method: as §1

saliva secretion [4] = experiment: Saliva secretion effects in human; format: in vivo; details: 10 tested subjects
Method: 2-Methylspiro(1,3-oxathiolane-5,3')quinuclidine hydrochloride of formula (II), in amounts of 5, 10, 20, 30, 40, 50, 60, and 70 mg, was orally administered to five men and five women, aged 20-50 years.

saliva secretion [5] = experiment: Saliva secretion effects in patients suffering from a Sjoegren syndrome disease (Saxon test); format: in vivo, human
From the text: (§2) Five subjects diagnosed to be suffering from a Sjoegren syndrome disease according to the diagnosis criteria made by the study team at the Ministry of Health and Welfare (M. Ofuji, Study Report Summary for 1977, the results for the year 1977 of Diagnostic criteria of Sjoegren's syndrome (Ministry of Health and Welfare's Sjoegren Investigational Research Group), M. Ofugi, Research Report of Ministry of Health and Welfare's specific disease Sjoegren Investigational Research Group in 1977, 3-6, 1978). To each subject was administered said hydrochloric acid addition salt of quinuclidine of formula (II) at a dose of 10 mg, three times a day, each time one hour before meal, for 4 weeks (the first course); 20 mg, three times a day, each time one hour before meal, for 4 weeks (the second course); and 30 mg, three times a day, each time one hour before meal, for 4 weeks (the third course). The Saxon test (Kohler P. F., Winter M. E., Arthritis Rheum, 28, 1128-1132 (1985)) for measuring the saliva secretion was performed before the start of the first course, and after the completion of the first, second, and third courses.

[6] = tested on: Sjoegren syndrome disease; experiment: Observation of the patient (Sjoegren syndrome disease); format: in vivo, human
From the text: as §2

For CC(C[N+](C)(C)C)OC(N)=O (stereo not shown) [bethanechol], the side effects [1] is given as “comprehensive side effects such as headache, hot flush, palpitation, intrathoracic agony, nausea, emesis, diarrhea, abdominal discomfort, pyrosis, stomach discomfort, diaphoresis, and the like”.

With CC1OC2(CS1)CN1CCC2CC1 (stereo not shown) [2-methylspiro(1,3-oxathiolane-5,3')quinuclidine hydrochloride] the LD50 at 336 h ([2]; iv, female mice) was 40.8 mg/kg, the LD50 at 336 h ([2]; iv, male mice) was 45.2 mg/kg and the LD50 at 336 h ([2]; po, female mice) was 167 mg/kg. The LD50 at 336 h ([2]; po, male mice) was 139 mg/kg, the LD50 at 336 h ([2]; sc, Subcutaneous, female mice) was 78.1 mg/kg and the LD50 at 336 h ([2]; sc, Subcutaneous, male mice) was 65 mg/kg. The “Number of animals secreted saliva” value (saliva secretion [3]; 0.5 mg/kg/day oral) was 0 animals, the “Number of animals secreted saliva (%)” value (saliva secretion [3]; 0.5 mg/kg/day oral) was 0% and the “Number of animals secreted saliva” value (saliva secretion [3]; 3.0 mg/kg/day oral) was 3 animals. For the same molecule, the “Number of animals secreted saliva (%)” value (saliva secretion [3]; 3.0 mg/kg/day oral) was 75%, the “Number of animals secreted saliva” value (saliva secretion [3]; 18.0 mg/kg/day oral) was 4 animals and the “Number of animals secreted saliva (%)” value (saliva secretion [3]; 18.0 mg/kg/day oral) was 100%. For the same molecule, the “Number of animals secreted tear” value (tear secretion; 0.5 mg/kg/day oral) was 0 animals, the “Number of animals secreted tear (%)” value (tear secretion; 0.5 mg/kg/day oral) was 0% and the “Number of animals secreted tear” value (tear secretion; 3.0 mg/kg/day oral) was 1 animals. For the same molecule, the “Number of animals secreted tear (%)” value (tear secretion; 3.0 mg/kg/day oral) was 25%, the “Number of animals secreted tear” value (tear secretion; 18.0 mg/kg/day oral) was 4 animals and the “Number of animals secreted tear (%)” value (tear secretion; 18.0 mg/kg/day oral) was 100%. For the same molecule, the “Subjects showing promoted saliva secretion” value (saliva secretion [4]; 5 mg oral) was 0 subjects, the “Subjects showing promoted saliva secretion” value (saliva secretion [4]; 10 mg oral) was 0 subjects and the “Subjects showing promoted saliva secretion” value (saliva secretion [4]; 20 mg oral) was 2 subjects. The “Subjects showing promoted saliva secretion” value (saliva secretion [4]; 30 mg oral) was 8 subjects, the “Subjects showing promoted saliva secretion” value (saliva secretion [4]; 40 mg oral) was 10 subjects and the “Subjects showing promoted saliva secretion” value (saliva secretion [4]; 50 mg oral) was 10 subjects. For the same molecule, the “Subjects showing promoted saliva secretion” value (saliva secretion [4]; 60 mg oral) was 10 subjects, the “Subjects showing promoted saliva secretion” value (saliva secretion [4]; 70 mg oral) was 10 subjects and the “Ratio of secreted saliva to the value before the administration in the first course” value (“Ratio of secreted saliva” for short) (saliva secretion [5]; subject 1, after first course (10 mg three times a day)) was 1.66. For the same molecule, the “Amount of secreted saliva” value (saliva secretion [5]; subject 1, after first course (10 mg three times a day, 4 weeks), before 0.65 g) was 1.08 g, the “Ratio of secreted saliva” value (saliva secretion [5]; subject 1, after second course (20 mg three times a day)) was 3.15 and the “Amount of secreted saliva” value (saliva secretion [5]; subject 1, after second course (20 mg three times a day, 4 weeks), before 0.65 g) was 2.05 g. The “Ratio of secreted saliva” value (saliva secretion [5]; subject 1, after third course (30 mg three times a day)) was 6.00, the “Amount of secreted saliva” value (saliva secretion [5]; subject 1, after third course (30 mg three times a day, 4 weeks), before 0.65 g) was 3.90 g and the “Ratio of secreted saliva” value (saliva secretion [5]; subject 2, after first course (10 mg three times a day)) was 1.70. For the same molecule, the “Amount of secreted saliva” value (saliva secretion [5]; subject 2, after first course (10 mg three times a day, 4 weeks), before 0.73 g) was 1.24 g, the “Ratio of secreted saliva” value (saliva secretion [5]; subject 2, after second course (20 mg three times a day)) was 3.48 and the “Amount of secreted saliva” value (saliva secretion [5]; subject 2, after second course (20 mg three times a day, 4 weeks), before 0.73 g) was 2.54 g. The “Ratio of secreted saliva” value (saliva secretion [5]; subject 2, after third course (30 mg three times a day)) was 6.16, the “Amount of secreted saliva” value (saliva secretion [5]; subject 2, after third course (30 mg three times a day, 4 weeks), before 0.73 g) was 4.50 g and the “Ratio of secreted saliva” value (saliva secretion [5]; subject 3, after first course (10 mg three times a day)) was 1.91. For the same molecule, the “Amount of secreted saliva” value (saliva secretion [5]; subject 3, after first course (10 mg three times a day, 4 weeks), before 0.76 g) was 1.45 g, the “Ratio of secreted saliva” value (saliva secretion [5]; subject 3, after second course (20 mg three times a day)) was 2.05 and the “Amount of secreted saliva” value (saliva secretion [5]; subject 3, after second course (20 mg three times a day, 4 weeks), before 0.76 g) was 1.56 g. For the same molecule, the “Ratio of secreted saliva” value (saliva secretion [5]; subject 3, after third course (30 mg three times a day)) was 4.80, the “Amount of secreted saliva” value (saliva secretion [5]; subject 3, after third course (30 mg three times a day, 4 weeks), before 0.76 g) was 3.65 g and the “Ratio of secreted saliva” value (saliva secretion [5]; subject 4, after first course (10 mg three times a day)) was 1.51. The “Amount of secreted saliva” value (saliva secretion [5]; subject 4, after first course (10 mg three times a day, 4 weeks), before 0.43 g) was 0.65 g, the “Ratio of secreted saliva” value (saliva secretion [5]; subject 4, after second course (20 mg three times a day)) was 3.80 and the “Amount of secreted saliva” value (saliva secretion [5]; subject 4, after second course (20 mg three times a day, 4 weeks), before 0.43 g) was 1.63 g. The “Ratio of secreted saliva” value (saliva secretion [5]; subject 4, after third course (30 mg three times a day)) was 6.72, the “Amount of secreted saliva” value (saliva secretion [5]; subject 4, after third course (30 mg three times a day, 4 weeks), before 0.43 g) was 2.89 g and the “Ratio of secreted saliva” value (saliva secretion [5]; subject 5, after first course (10 mg three times a day)) was 1.31. The “Amount of secreted saliva” value (saliva secretion [5]; subject 5, after first course (10 mg three times a day, 4 weeks), before 0.45 g) was 0.59 g, the “Ratio of secreted saliva” value (saliva secretion [5]; subject 5, after second course (20 mg three times a day)) was 2.16 and the “Amount of secreted saliva” value (saliva secretion [5]; subject 5, after second course (20 mg three times a day, 4 weeks), before 0.45 g) was 0.97 g. For the same molecule, the “Ratio of secreted saliva” value (saliva secretion [5]; subject 5, after third course (30 mg three times a day)) was 3.27, the “Amount of secreted saliva” value (saliva secretion [5]; subject 5, after third course (30 mg three times a day, 4 weeks), before 0.45 g) was 1.47 g and the “Observation of the patient: Saliva secretion” value ([6]; subject 1) was “increased”. The “Observation of the patient: A dry feeling of oral cavity and irritation in the eyes” value ([6]; subject 2) was “improved”, the “Observation of the patient: The need for drinking water when taking food” value ([6]; subject 3) was “eliminated” and the “Observation of the patient: Incidence of being awaken due to dry mouth at midnight” value ([6]; subject 4) was “improved”.

— patent US5340821A, “Composition and method for treating Sjoegren syndrome disease” (Snow Brand Milk Products Co., Ltd., priority 1992, dated 1994)
